Measurements as given in patent US20240400542A1 (University of Virginia Patent Foundation, priority 2021, published 2024).

Experiments:
Jurkat proteomes = assay: In vitro competition of KY-26 labeling, gel-based chemical proteomics; type: binding, human; conditions: pretreatment 30 min, 37° C.: ATP 10-0.5 mM, KY-424 1 and 0.5 mM, then KY-26 5 μM
Procedure: (§1) Briefly, Jurkat cells were grown to 80% confluency and treated with either DMSO or probe at the designated final concentration (KY-26 or XO44, 1,000× stock in serum-free media (SFM)) and incubated at 37° C. with 5% CO2 for 30 min. Cells were harvested and lysed in PBS buffer containing EDTA-free protease inhibitors. Addition of the rhodamine fluorescent tag was accomplished by CuAAC and fluorescently labeled proteins visualized by SDS-PAGE and in-gel fluorescence scanning. For KY-26 and XO44 live cell treated samples, 50 μL aliquots of proteome were used for gel experiments. […]
(§2) Cell pellets were lysed in PBS buffer (PBS+a protease inhibitor (sold under the tradename PIERCE™, Thermo Fisher Scientific, Waltham, Massachusetts, United States of America), EDTA free) by sonicating 3 times for 1 second×20% amplitude. […] Protein concentrations were measured using the Bio-Rad DC protein assay (Bio-Rad Laboratories, Hercules, California, United States of America), and fractions were diluted to a concentration of 1 mg/mL in PBS. […] 30 μL of each sample were separated by SDS-PAGE and analyzed by in-gel fluorescence scanning for the rhodamine azide tag. […]
In addition to solution reactivity, activity of KY-26 and XO44 in proteomes was compared using gel-based chemical proteomics. […] Probe-modified proteins were visualized by SDS-PAGE and in-gel fluorescence scanning. […]

recombinant human CDK2 = recombinant human CDK2 (Homo sapiens, UniProt P24941); assay: Competition of KY-26 ABP labeling of recombinant CDK2 in HEK293T lysates; type: binding; conditions: then 2.5 μM KY-26 30 minutes
Procedure: Gateway cloning was performed to generate recombinant human CDK2 (containing a FLAG tag) overexpression plasmid (see FIG. 11) and recombinant human CDK2 was overexpressed in HEK293T mammalian cells. KY-26 and TH211 activity-based probe (ABP) labeling of the recombinant human CDK2 was performed. Briefly, recombinant human CDK2 overexpressed HEK293T lysates were incubated […] with various concentrations of TH211 (a broad-spectrum kinase ABP) or KY-26 (a targeted covalent kinase ABP) for 30- and 60-minutes. Western blots confirmed CDK2 overexpression with rabbit anti-FLAG and goat anti-rabbit 650 antibodies for samples incubated with KY-26 or TH211 probes.
Recombinant human CDK2 overexpressed HEK293T lysates were incubated with KY-424 (1 μM-10 μM) or free ATP (1 μM-10 μM) for 30 minutes at 37° C. Subsequently, samples were incubated with 2.5 μM KY-26 for 30 minutes at 37° C. […] Based on this finding, the study was performed using additional concentrations of KY-424 ([…]) or free ATP (400 μM-10 mM) for 30 minutes at 37° C. Again, samples were then incubated with 2.5 μM KY-26 for 30 minutes at 37° C. […] Lysates from 24- (KY-424 competition) and 48-hour transfections (ATP competition) were used.

[1] = HPLC solution reactivity of probe with p-cresol (tyrosine mimetic); type: physicochemical; conditions: UV 254 nm, TMG base, 0° C., longest time point tested 90 min
Procedure: (§3) Briefly, reaction progress of KY-26 or XO44 with p-cresol or n-butylamine (16.5 μmol, 3.3 eq.) in the presence of TMG base (1,1,3,3-tetramethylguanidine, 1.1 eq) was evaluated by monitoring probe consumption and quantified based on the signal from the caffeine standard using HPLC. Synthetic peptide reactions were conducted by mixing the peptide (Ac-RLNERHYGGLTGLNK-NH2, 50 nmol, 1.0 eq.) with 1.1 eq of TMG. KY-26 (550 nmol, 11.0 eq) was added to the mixture and the reaction was kept at 37° C. until the reaction achieved at least 50% conversion.
(§4) More particularly, an acetonitrile solution of p-cresol or n-butylamine (16.5 μmol, 3.3 eq.) was mixed with 1.1 eq of TMG. KY-26 or XO44 in ACN:DMF=6:4 (5 μmol, 1.0 eq.) was added to the mixture and the reaction was kept at 0° C. The final molarity for KY-26 or XO44 is 10 mM. Aliquots (50 μl) of the reaction were taken and quenched by adding acetic acid (0.5 M final, 5.0 μmol) and caffeine standard (0.05 M final, 0.5 μmol) at ten-minute intervals for 1.5 hrs. 1.0 μL sample was injected and analyzed by reverse-phase HPLC with mobile phases A (H2O, 0.1% AcOH) and B (CH3CN, 0.1% AcOH) with a gradient of 0-15-85-100% B in 0-0.5-6.5-7 min. UV measurements taken at 254 nm. Reaction progress was evaluated by monitoring KY-26 or XO44 consumption and quantified based on the signal from the caffeine standard. […]

[2] = HPLC solution reactivity of probe with n-butylamine (lysine mimetic); type: physicochemical; conditions: TMG base, 0° C., KY-26 compared with p-cresol
Procedure: as §3, §4

Jurkat cells = assay: Gel-based chemical proteomics, live cell probe labeling; design: species or system human
Procedure: as §1, with “experiments. For KY-26 lysate labeling, 49 μL aliquots of cell lysate were used for each dose and time point before adding 1 μL of 50× KY-26 stock (5 μM final) and incubated for 30 min at 37° C.” for “experiments.”
as §2

Structure (SMILES) | blockade of KY-26 labeling of proteomes (Jurkat proteomes) | blockade of KY-26 labeling of recombinant human CDK2 (recombinant human CDK2; 40 nM KY-424, 30 minutes at 37° C., HEK293T lysates) | competition of KY-26 ABP labeling of recombinant human CDK2 (recombinant human CDK2; KY-424 1 μM-10 μM, 30 minutes at 37° C.) | time to near-complete depletion of probe in reaction with p-cresol [1] | reaction of probe with n-butylamine [2] | probe labeling in live cells, dependence on concentration and time (Jurkat cells; 2.5-25 μM, 15-120 min) | proteome reactivity, in-gel fluorescence intensity compared with XO44 (Jurkat cells; live Jurkat cells, 5 μM, 30 min, 37° C.)
CCCNC(=O)c1cc(Nc2cc(C3CC3)[nH]n2)nc(N2CCN(C(=O)c3ccc(S(=O)(=O)n4cnc(-c5ccccc5)n4)cc3)CC2)n1 [KY-424, 6-((5-cyclopropyl-1H-pyrazol-3-yl)amino)-2-(4-(4-((3-phenyl-1H-1,2,4-triazol-1-yl)sulfonyl)benzoyl)piperazin-1-yl)-N-propylpyrimidine-4-carboxamide] | concentration-dependent blockade | approximately 50% | potently competes |  |  |  | 
C#CCNC(=O)c1cc(Nc2cc(C3CC3)[nH]n2)nc(N2CCN(C(=O)c3ccc(S(=O)(=O)n4cnc(-c5ccccc5)n4)cc3)CC2)n1 [KY-26, 6-((5-cyclopropyl-1H-pyrazol-3-yl)amino)-2-(4-(4-((3-phenyl-1H-1,2,4-triazol-1-yl)sulfonyl)benzoyl)piperazin-1-yl)-N-(prop-2-yn-1-yl)pyrimidine-4-carboxamide] |  |  |  | ≤ 20 min | reduced activity | concentration- and time-dependent probe labeling | substantially increased reactivity
Nc1ncnc2c1ncn2[C@@H]1O[C@H](COP(=O)(O)OP(=O)(O)OP(=O)(O)O)[C@@H](O)[C@H]1O [ATP, adenosine triphosphate, reference compound] | concentration-dependent blockade |  |  |  |  |  | 
